The conditions of series [1]: Crystal; DTA.
Series [2] in a line: Molar enthalpy of transition or fusion. Conditions: Crystal; DSC.

Numbers after ± are expanded uncertainties.

Consider `CC(=O)S[C@@H]1CC2=CC(=O)CC[C@]2(C)[C@H]2CC[C@@]3(C)[C@@H](CC[C@@]34CCC(=O)O4)[C@H]12` [spironolactone], for which the Normal melting temperature in series [1] was found to be 208.42 ± 1.1 °C. Moreover, the “Molar enthalpy of transition or fusion” value in series [2] was 4.96 ± 0.311 kcal/mol.

For the origin of these results see the NIST ThermoML archive (doi:10.1016/j.jct.2014.07.011).
